These results are taken from article PMC12481569, “Novltex: A New Class of Antibiotics with Potent Activity against Multidrug-Resistant Bacterial Pathogens–Design, Synthesis, and Biological Evaluation” (Journal of Medicinal Chemistry, 2025).

The test system of data set [1] is MDR clinical strains of S. aureus and E. faecium. Format: cell-based, Staphylococcus aureus; Enterococcus faecium. The note with it: range over 4 S. aureus and 3 E. faecium strains. As for the experimental part:
(§1) MICs were performed as previously reported 4. For MIC testing all peptides were dissolved in DMSO.
Bacterial cultures were grown overnight on Mueller-Hinton Agar (MHA) plates and adjusted to a final inoculum of 10^5 – 10^6 CFU/mL. 100 µl of ino culum in Meuller -Hinton broth (MHB) was mixed with equal volume of peptides (dissolved in MHB) at 2x their concentration in a 96 well plate . For daptomycin MIC determination, the same protocol was followed with the addition of 50 mg/L calcium chloride to the medium. MIC values were determined in the media contain ing polysorbate 80 (0.002%, v/v) to prevent non -specific adsorption of the peptides to plastic surfaces. The final peptides concentrations ranged from 0.0625 – 32 µg/mL. The 96 well plates were then incubated at 37 °C for 24 h. All the experiments were performed in two independent duplicates and the MIC was determined as the lowest concentration in which no visible growth was observed. […]

The test system of another data set is MRSA ATCC 33591. Briefly: Resistance study on agar. In kind it is cell-based, Staphylococcus aureus. The note with it: 10× MIC on agar, 24 h, 37 °C. As for the experimental part: as §1
Bacterial cultures were grown overnight on Mueller-Hinton Agar (MHA) plates and adjusted to a final inoculum of 10^5 – 10^6 CFU/mL. 100 µl of ino culum in Meuller -Hinton broth (MHB) was mixed with equal volume of peptides (dissolved in MHB) at 2x their concentration in a 96 well plate . […]
MIC values were determined in the media contain ing polysorbate 80 (0.002%, v/v) to prevent non -specific adsorption of the peptides to plastic surfaces. The final peptides concentrations ranged from 0.0625 – 32 µg/mL. The 96 well plates were then incubated at 37 °C for 24 h. All the experiments were performed in two independent duplicates and the MIC was determined as the lowest concentration in which no visible growth was observed. […]
VIII. Time dependent killing of bacteria and resistance studies by analogue 12 […]
Resistance evaluations were conducted following previously described protocols 5. […]

In data set [2] the test system is human primary dermal fibroblasts. Briefly: Cytotoxicity, MTS-based assay. In kind it is cell-based. Conditions: up to 50 μg/mL, 24 or 48 h, three independent experiments in triplicate. As to the method: 4 Cytotoxicity evaluation of analogue 12. Human primary dermal fibroblasts (A), liver cell line HepG2 (B), and kidney cell line HEK293T (C) cells (5 × 10^3 cells/well in 96-well plates) were treated with increasing concentrations of analogue 12 or 1 μM staurosporine (STS, used as a positive toxicity control) for 24 or 48 h, as indicated. Viability of cells was determined using an MTS-based assay. Results (% cell viability) are the mean ± SD of three independent experiments performed in triplicate. (D) Freshly collected human red blood cells (RBCs) were exposed to increasing concentrations of 12 or Triton X-100 (TX), as indicated, for 1 h. Hemolytic activity (% hemolysis) was determined by spectrophotometrically measuring the release of hemoglobin compared to that with TX (used as a positive control). Results are the mean ± SD of 4 independent experiments performed in duplicate using blood samples from four different anonymous healthy donors. […]
Bacterial cultures were grown overnight on Mueller-Hinton Agar (MHA) plates and adjusted to a final inoculum of 10^5 – 10^6 CFU/mL. […] MIC values were determined in the media contain ing polysorbate 80 (0.002%, v/v) to prevent non -specific adsorption of the peptides to plastic surfaces. […] All the experiments were performed in two independent duplicates and the MIC was determined as the lowest concentration in which no visible growth was observed. […]

Positions of bridges follow the written chain, without caps; N, C: chain ends. Non-standard residues stand in square brackets, D forms with d. Residues, ends and D or L forms follow the SMILES beside them. dCha = N[C@H](CC1CCCCC1)C(=O)O

On to `CC(C)C[C@@H]1NC(=O)[C@H](C)NC(=O)[C@H](NC(=O)[C@H](CO)NC(=O)[C@@H](CCCCN)NC(=O)[C@@H](CC2CCCCC2)NC(=O)[C@@H](N)Cc2ccccc2)[C@H](C)OC(=O)[C@H](CC(C)C)NC1=O` [analogue 12, Leu2Cha–Novltex] (H-F[dCha][dK]S[dT]ALL; ester 5-C), for which the “MIC against both groups of MDR clinical strains” value in data set [1] was in the range of 0.063 to 0.5 µg/mL. For the same molecule, the “emergence of resistant mutants” value with MRSA ATCC 33591 is “No resistant MRSA ATCC 33591 mutants emerged”. In addition, in data set [2], the “cytotoxicity (cell viability), primary dermal fibroblasts” value was “no major cytotoxicity”.
